Experimental data from article PMC8999125, “In Vitro and In Vivo Effects of the Urokinase Plasminogen Activator Inhibitor WX-340 on Anaplastic Thyroid Cancer Cell Lines” (International Journal of Molecular Sciences, 2022).

Molecular target: T1, urokinase-type plasminogen activator (uPA) (Homo sapiens, UniProt P00749)
T1 construct: gene PLAU; uPA purified from human urine
Experiment: colorimetric uPA activity assay (CHEMICON kit), dose-response […] to […]
Format: biochemical

Question: WX-340 was tested. Which IC50 did it give?
Answer: 90 nM
